Where two headings read alike, the source gives them in different places. One block for each molecule: values may come before it.
Columns and labels:
[1] = test system: Bacillus subtillis IAM 1249; assay: minimum growth-inhibiting concentration (MIC) of AF, influence of heat treatment (Table A); format: cell-based
Description: (§1) As described in the first process, 1,5-D-anhydrofructose is an antibacterial substance having a high safety, but the present inventors have found to obtain the following advantages when 1,5-D-anhydrofructose is previously subjected to a heat treatment. That is, an antibacterial power of 1,5-D-anhydrofructose can be further increased, and the antibacterial power is developed at a low concentration of 1,5-D-anhydrofructose, as compared with a case where 1,5-D-anhydrofructose is not subjected to the heat treatment. Consequently, a food containing 1,5-D-anhydrofructose is difficult to putrefy and at the same time, the antibacterial spectrum becomes wider.

[2] = test system: Escherichia coli NRIC 1023; assay: as above; format: cell-based
Description: as §1

[3] = test system: Salmonella typhimurium IFO 12529; assay: as above; format: cell-based
Description: as §1

[4] = test system: Staphylococcus aureus FDA 209P; assay: as above; format: cell-based
Description: as §1

[5] = test system: Streptococcus lactis IAM 1249; assay: as above; format: cell-based
Description: as §1

[6] = test system: Pseudomonas aeruginosa IFO 12680; assay: number of bacteria killed by heating in soybean-casein digest broth medium pH 5.5 (FIG. 1); format: cell-based; details: 1% 1,5-D-anhydrofructose, heating at 55° C. for ten minutes, pH 5.5 broth
Description: FIG. 1 is a curve indicating the number of Pseudomonas aeruginosa IFO 12680 killed by heating.
(§2) FIGS. 1 and 2 show curves each indicating the number of gram-negative bacteria killed in a soybean-casein digest broth medium (pH of 5.5) by heating.

[7] = test system: Salmonella typhimurium IFO 12529; assay: number of bacteria killed by heating in soybean-casein digest broth medium pH 5.5 (FIG. 2); format: cell-based; details: 1% 1,5-D-anhydrofructose, heated at 60° C. for 10 minutes, pH 5.5 broth
Description: FIG. 2 is a curve indicating the number of which Salmonella typhimurium IFO 12529 killed by heating.
as §2

[8] = test system: Bacillus subtillis IAM 1249; assay: Test Example 1 antibacterial power test using turbidimetry (Table 12); format: cell-based; details: for OD^660 (turbidity): shake culture 37° C., 72 hours
Procedure: AF was subjected to an antibacterial power test using a turbidimetry. More specifically, a soybean-casein digest broth medium (having a pH value of 5.5) previously sterilized and 1% of AF were placed into a test tube and heated under heating conditions shown in Table 12. Then, 8.7×10^4 CFU of Bacillus subtillis IAM 1249 was inoculated into the test tube, shake culture was carried out at 37° C. for 72 hours, and the turbidity (OD, 660 nm) was then measured.

[9] = test system: Bacillus subtillis IAM 1249; assay: Test Example 2 number of living bacteria in noodle soup preserved at 30° C. (FIG. 3)
Procedure: FIG. 3 is a graph showing the number of Bacillus. subtillis IAM 1249 living in a noodle soup under preservation.
(§3) This will be described in detail later in Test Example 2.
(§4) 40 Grams of a powdery soup stock (produced by Yamaki, Co.) and 200 ml of commercially available soy sauce were added to 1,000 ml of water to prepare a noodle soup. Bacteria were inoculated into the noodle soup, and the noodle soup was preserved at 30° C., and then, the number of living bacteria was counted. FIG. 3 is a curve showing the number of living Bacillus subtillis IAM 1249 (which will be simply referred to as B. subtillis hereinafter), and FIG. 4 is a curve showing the number of living Escherichia coli NRIC 1023 (which will be simply referred to as E. coli hereinafter). In FIGS. 3 and 4, A-1 and A′-1 are curves each indicating the number of living B. subtillis or E. colli inoculated into the unsterilized noodle soup. In the cases of A-1 and A′-1,1,5-D-anhydrofructose was not added, and P and P′ indicate the number of bacteria initially generated.
(§5) A-2 and A′-2 are curves each indicating the number of living B. subtillis or E. colli inoculated into the noodle soup sterilized by heating in hot water at […]. for 10 minutes. In the cases of A-2 and A′-2,1,5-D-anhydrofructose was not added, and the numbers of bacteria initially generated are indicated by Q and Q′, respectively. […]

[10] = test system: Escherichia coli NRIC 1023; assay: Test Example 2 number of living bacteria in noodle soup preserved at 30° C. (FIG. 4)
Procedure: FIG. 4 is a graph showing the number of Escherichia coli NRIC 1023 living in a noodle soup under preservation.
as §3, §4, §5

Lactobacillus casei = assay: Test Example 3 swelling of noodle soup sacks preserved at 30° C. (Table 13); details: 2% of AF
Procedure: 40 Grams of a powdery soup stock (produced by […], Co.), 200 ml of commercially available soy sauce and 2% of AF were added to 1000 ml of water. The mixture was aseptically filtered and charged in an amount of 100 ml into each of ten polypropylene sacks previously sterilized. Meanwhile, 1 ml of the noodle soup (containing a number of living bacteria of 3.1×10^6/ml) deteriorated due to “swelling” caused by Lactobacillus casei was charged into each of the above-prepared ten sacks, which were then sealed so as air not to be left therein. The ten sacks were divided into two groups each consisting of five sacks. One of the groups was not heated, and the other group was heated in a hot water at 55° C. for 10 minutes. Then, both of them were preserved at 30° C., and the occurrence of “swelling” was observed.

Bacillus subtillis = assay: Example 11 curry preservability, sensory evaluation test (Table 14); details: curry with AF
Procedure: 7 Parts of beef, 57 parts of vegetables (12 parts of potato, 40 parts of onion and 5 parts of carrot), 1 part of a curry powder, 6 parts of fatty oil, 0.2 parts of sodium glutamate, 1 part of starch and 40 parts of a soup were mixed together, and the mixture was heated and cooked at 80° C. for 1 hour. The resulting product was a curry containing a somewhat larger amount of soup and having a low viscosity. The following operations were conducted in a clean bench. The curry was subdivided each in an amount of 95 grams into ten plugged vessels previously sterilized. The ten vessels were divided into two groups each consisting of five vessels. A 30% solution of AF subjected to an aseptic filtration was added in an amount of 5 g into each of the vessels in one of the groups. Then, 2×10 ^5 nutritious cells of Bacillus subtillis incubated previously were inoculated into the group, and was mixed uniformly. Five grams of a 30% solution of AF subjected to an aseptic filtration was added into each of the vessels in the other group. Then, 2×10^5 nutritious cells of Bacillus subtillis incubated previously were inoculated into the group, and after mixing uniformly, heated at 60° C. for 10 minutes and then cooled rapidly. Both of the groups were preserved at […], and the preservability of them was compared by a sensory evaluation test.

many bacteria = details: against many bacteria; 'has been recognized'; cited from earlier work
[11] = noodle soup, heating at 550° C. for 10 minutes after addition of 1,5-D-anhydrofructose vs heating without it

minimum growth-inhibiting concentration (MIC) [1]: 1% | minimum growth-inhibiting concentration (MIC) [2]: 2% | minimum growth-inhibiting concentration (MIC) [3]: 2% | minimum growth-inhibiting concentration (MIC) [4]: 0.5% | minimum growth-inhibiting concentration (MIC) [5]: 1%
Structure (SMILES): O=C1CO[C@H](CO)[C@@H](O)[C@@H]1O [heated AF, 1,5-D-anhydrofructose]

minimum growth-inhibiting concentration (MIC) ([1]; listed as non-heated AF): 3% | minimum growth-inhibiting concentration (MIC) ([2]; listed as non-heated AF): 5% | minimum growth-inhibiting concentration (MIC) ([3]; listed as non-heated AF): 4% | minimum growth-inhibiting concentration (MIC) ([4]; listed as non-heated AF): 1.5% | minimum growth-inhibiting concentration (MIC) ([5]; listed as non-heated AF): 3%
Structure (SMILES): O=C1CO[C@H](CO)[C@@H](O)[C@@H]1O [AF, 1,5-D-anhydrofructose]
number of bacteria remaining alive relative to the control [6]: one tenth of that in the control | number of bacteria remaining alive relative to the control [7]: one hundredth or less of that in the control | OD^660 (turbidity) ([8]; 1% of AF added and not heated): 0.836 | OD^660 (turbidity) ([8]; 1% of AF, heated at 55° C. for 10 minutes): 0.513 | OD^660 (turbidity) ([8]; 1% of AF, heated at 60° C. for 10 minutes): 0.437 | OD^660 (turbidity) ([8]; 1% of AF, heated at 80° C. for 10 minutes): 0.355 | OD^660 (turbidity) ([8]; 1% of AF, heated at 90° C. for 10 minutes): 0.338 | antibacterial power relative to the control with 1% of AF added and not heated ([8]; heated at 55° C. for 10 minutes after addition of 1% of AF, (1.160-0.513)/(1.160-0.836)): about two times | proliferation of bacteria during preservation ([9]; noodle soup containing 1,5-D-anhydrofructose, 30° C., B-2 vs B-3): suppressed | number of living bacteria initially generated (from Q to R) [9, 11]: reduced by about one figure | proliferation of bacteria during preservation ([10]; noodle soup containing 1,5-D-anhydrofructose, 30° C., B′-2 vs B′-3): suppressed | number of living bacteria initially generated (from Q′ to R′) [10, 11]: reduced by about one figure | number of normal sacks / total number of sacks (Lactobacillus casei; heated at 55° C. for 10 minutes, 5 preservation days at 30° C.): 5/5 | number of normal sacks / total number of sacks (Lactobacillus casei; heated at 55° C. for 10 minutes, 10 preservation days at 30° C.): 3/5 | number of normal sacks / total number of sacks (Lactobacillus casei; heated at 55° C. for 10 minutes, 15 preservation days at 30° C.): 1/5 | number of normal sacks / total number of sacks (Lactobacillus casei; heated at 55° C. for 10 minutes, 20 preservation days at 30° C.): 0/5 | number of normal sacks / total number of sacks (Lactobacillus casei; not heated, 5 preservation days at 30° C.): 4/5 | number of normal sacks / total number of sacks (Lactobacillus casei; not heated, 10 preservation days at 30° C.): 0/5 | number of normal vessels / total number of vessels (Bacillus subtillis; Heated at 60° C. for 10 minutes, preservation time 12): 5/5 | number of normal vessels / total number of vessels (Bacillus subtillis; Heated at 60° C. for 10 minutes, preservation time 24): 5/5 | number of normal vessels / total number of vessels (Bacillus subtillis; Heated at 60° C. for 10 minutes, preservation time 36): 5/5 | number of normal vessels / total number of vessels (Bacillus subtillis; Heated at 60° C. for 10 minutes, preservation time 48): 5/5 | number of normal vessels / total number of vessels (Bacillus subtillis; Heated at 60° C. for 10 minutes, preservation time 60): 0/5 | number of normal vessels / total number of vessels (Bacillus subtillis; Not heated, preservation time 12): 5/5 | number of normal vessels / total number of vessels (Bacillus subtillis; Not heated, preservation time 24): 5/5 | number of normal vessels / total number of vessels (Bacillus subtillis; Not heated, preservation time 36): 0/5 | concentration exhibiting proliferation-inhibiting effect (many bacteria): ≤ 1%

From patent publication US6824801B2, “Process for producing foods having good keeping qualities and food keeping agents” (Nihon Starch Co., Ltd., priority 2000, dated 2004)
